Type in all cases: cell-based
The test system of one test is Zymoseptoria tritici.
Another test relates to Puccinia striiformis. As to the kind of experiment: In vitro antifungal screening of strain extracts and fractions.
Another test concerns Fusarium graminearum. Conditions: in vitro.

For the substance Takanawaene C, the “growth inhibition, Zymospetoria tritici” value with Zymoseptoria tritici was determined as 9% growth. For the same substance, the “growth inhibition, Puccinia striiformis” value in the test on Puccinia striiformis worked out at 100% inhibition. The “growth inhibition, Fusarium graminearum” value in the test with Fusarium graminearum is recorded as 100% growth.
